For 19 compounds, TGI and GI50 results are on record in PubChem BioAssay (NCI).

Structures are written as SMILES.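 Following 48 hours of exposure in 96-well plates, responses at five concentrations were used to interpolate endpoints linearly. GI50 is the concentration that inhibits growth by half. The concentration for full growth arrest is given as TGI.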

Among the test systems are ACHN renal; CCRF-CEM leukemia; LOX IMVI melanoma; A498 renal; HT29 colon; NCI-H460 lung; HOP-62 NSCLC; NCI-H23 lung; NCI-H522 lung; SF-268 CNS.
Holding throughout (test): DTP human tumour cell line panel, 48 h

As usually defined, the TGI is the concentration at which net growth stops. The low end stands for greater sensitivity of the cells, the high end for lower sensitivity of the cells. For `CSc1nc(NC2OC(COC(C)=O)C(OC(C)=O)C(OC(C)=O)C2OC(C)=O)c2c(OC(C)=O)c(C)c(=O)oc2n1` (stereo unspecified), the TGI with ACHN renal, with CCRF-CEM leukemia, in the test with LOX IMVI melanoma, with A498 renal, with HT29 colon and in the test with NCI-H460 lung was greater than 100 µM in each case. Moreover, the TGI with HOP-62 NSCLC and in the test with NCI-H23 lung was greater than 100 µM throughout.

Broadly, the GI50 is the concentration that inhibits growth by half. Take `Cn1cc(-c2csc(-c3cccc(F)c3)n2)c2cccnc21`: the GI50 in the test on ACHN renal is 18.2 µM; in the test on CCRF-CEM leukemia, 35.9 µM; in the test on LOX IMVI melanoma, 14.1 µM; in the test on HT29 colon it was 14.2 µM; in the test on NCI-H522 lung it was 15.9 µM; in the test on SF-268 CNS it was 17.3 µM. The GI50 in the test with NCI-H460 lung is 17 µM; with HOP-62 NSCLC, 18.9 µM; in the test with NCI-H23 lung, 17.3 µM. For the same compound, the TGI in the test on ACHN renal was 50.7 µM; in the test with CCRF-CEM leukemia, greater than 100 µM; in the test on LOX IMVI melanoma, 27.5 µM; in the test with HT29 colon it was 27.9 µM; in the test on NCI-H522 lung it was 36 µM; in the test with SF-268 CNS it was 32.1 µM. In addition, the TGI with NCI-H460 lung stood at 34.7 µM; with HOP-62 NSCLC it was 34.5 µM; in the test with NCI-H23 lung, 36 µM.

With `Nc1c(-c2ccc(Br)cc2)[n+]([O-])c2ccccc2[n+]1[O-]`, the TGI in the test on ACHN renal, in the test with A498 renal, in the test with HT29 colon, with NCI-H522 lung, with SF-268 CNS and in the test on NCI-H460 lung was greater than 100 µM throughout. Also, the TGI in the test on HOP-62 NSCLC and with NCI-H23 lung was greater than 100 µM each time.

Turning to `CCCCC/C=C/C/C=C/CCCCCCCC1=NC(C)(C)CN1C(C)C`, the GI50 is 1.7 µM with ACHN renal; 2.35 µM in the test on A498 renal; 1.38 µM in the test with HT29 colon; 1.72 µM in the test with NCI-H522 lung; 1.68 µM in the test with SF-268 CNS; 1.82 µM in the test with NCI-H460 lung. Also, the GI50 in the test with HOP-62 NSCLC was 1.58 µM; with NCI-H23 lung, 1.49 µM. Besides, the TGI with ACHN renal stood at 3.07 µM; in the test on A498 renal, 15.5 µM; in the test with HT29 colon it was 2.74 µM; with NCI-H522 lung it was 3.17 µM; in the test on SF-268 CNS it was 3.05 µM; in the test on NCI-H460 lung, 3.34 µM. Further, the values for the TGI with HOP-62 NSCLC and with NCI-H23 lung were 3.17 µM and 3.24 µM, respectively.

Consider `CCCCn1c(-c2ccc(C(=O)O/N=C(\N)c3ccc(OC)cc3)cc2)nc(-c2ccccc2)c1-c1ccccc1`, for which the GI50 in the test with ACHN renal was 0.599 µM; with CCRF-CEM leukemia, 0.556 µM; in the test with LOX IMVI melanoma, 0.181 µM; in the test with HT29 colon, 2.9 µM; in the test on NCI-H460 lung, 1.84 µM. Moreover, the TGI in the test on ACHN renal was 1.85 µM; with CCRF-CEM leukemia, 2.76 µM; in the test on LOX IMVI melanoma, 0.342 µM; with HT29 colon, greater than 100 µM; in the test on NCI-H460 lung, 3.87 µM.

Consider `CCc1cccc(C)c1NC(C)=O`, for which the TGI in the test with ACHN renal, with CCRF-CEM leukemia, with A498 renal, in the test with HT29 colon, in the test with NCI-H460 lung and with HOP-62 NSCLC was greater than 100 µM throughout. This compound yielded a TGI in the test with NCI-H23 lung greater than 100 µM.

Turning to `COc1cc2c3c(n(CCCCl)c(=O)c2cc1OC)-c1ccccc1C3=O`, the GI50 is 19.2 µM in the test on ACHN renal; 0.71 µM in the test on CCRF-CEM leukemia; 8.83 µM with LOX IMVI melanoma; 5.31 µM in the test with NCI-H522 lung; greater than 100 µM in the test with SF-268 CNS; 3.66 µM in the test on NCI-H460 lung. Also, the figures for the GI50 in the test with HOP-62 NSCLC and in the test with NCI-H23 lung were 4.49 µM and 97.3 µM, respectively. Besides, the TGI with ACHN renal, in the test with CCRF-CEM leukemia, with LOX IMVI melanoma, with NCI-H522 lung, with SF-268 CNS and with NCI-H460 lung was greater than 100 µM throughout. In addition, the TGI with HOP-62 NSCLC was 44.5 µM; in the test on NCI-H23 lung, greater than 100 µM.

On to `Cc1cc(C)cc(Nc2cc(C)nc3nc(C(F)(F)F)nn23)c1`, for which the GI50 was 58.7 µM in the test with ACHN renal; greater than 100 µM in the test with LOX IMVI melanoma; 29 µM with A498 renal; greater than 100 µM with HT29 colon; 44.4 µM in the test with SF-268 CNS; greater than 100 µM in the test on NCI-H460 lung. Further, the GI50 in the test on HOP-62 NSCLC is 44 µM; in the test with NCI-H23 lung, greater than 100 µM. Moreover, the TGI in the test on ACHN renal, in the test with LOX IMVI melanoma, in the test on A498 renal, in the test on HT29 colon, in the test on SF-268 CNS and in the test with NCI-H460 lung was greater than 100 µM in each case. Also, the TGI in the test with HOP-62 NSCLC and in the test with NCI-H23 lung was greater than 100 µM each time.

With `CC(=O)SCCC1c2[nH]c3ccccc3c2CCN1O` (stereo unspecified), the TGI in the test on ACHN renal, in the test on CCRF-CEM leukemia, with LOX IMVI melanoma, with HT29 colon, in the test on NCI-H522 lung and with SF-268 CNS was greater than 100 µM in each case. For the same compound, the TGI in the test with NCI-H460 lung, in the test on HOP-62 NSCLC and in the test with NCI-H23 lung was greater than 100 µM in each case.

On to `CNC=O.[O]=[Ge].[O]=[Ge].[O]=[Ge].[O]=[Ge][OH].[O]=[Ge][OH]`, for which the TGI in the test on ACHN renal, in the test with CCRF-CEM leukemia, in the test with LOX IMVI melanoma, with A498 renal, with HT29 colon and with SF-268 CNS was greater than 100 µM throughout. Also, the concentration for total growth inhibition (TGI) in the test on NCI-H460 lung, in the test with HOP-62 NSCLC and in the test with NCI-H23 lung was greater than 100 µM in each case.

In the case of `CCN(CC)C(=O)C/C(C)=N/NC(=O)c1ccncc1`, the TGI in the test on CCRF-CEM leukemia, in the test on LOX IMVI melanoma, in the test on HT29 colon, in the test with NCI-H522 lung, in the test with SF-268 CNS and with NCI-H460 lung was greater than 100 µM in each case. Also, the TGI in the test on HOP-62 NSCLC and in the test with NCI-H23 lung was greater than 100 µM each time.

Regarding `Cc1c2c(nn1-c1ccc(S(=O)(=O)/N=C3\SCC(=O)N3C(=O)c3ccccc3)cc1)-c1ccccc1CC2`, the GI50 with ACHN renal was 24.6 µM; in the test with CCRF-CEM leukemia, 21 µM; in the test on LOX IMVI melanoma, greater than 100 µM; in the test on HT29 colon, 63.5 µM; in the test with NCI-H522 lung it was 96.2 µM; in the test with SF-268 CNS, 44.6 µM. For the same compound, the GI50 is 47.5 µM in the test with NCI-H460 lung, 33.5 µM with HOP-62 NSCLC and 27.7 µM with NCI-H23 lung. Besides, the TGI in the test on ACHN renal was 70.2 µM; in the test on CCRF-CEM leukemia, 49 µM; in the test on LOX IMVI melanoma it was greater than 100 µM; in the test on HT29 colon it was greater than 100 µM; with NCI-H522 lung, greater than 100 µM; with SF-268 CNS it was greater than 100 µM. For the same compound, the values for the TGI in the test on NCI-H460 lung, in the test on HOP-62 NSCLC and with NCI-H23 lung were greater than 100 µM, greater than 100 µM and 73.2 µM, respectively.

Regarding `CSc1ccc(/C=C2/C[N+](C)(C)C/C(=C/c3ccc(SC)cc3)C2=O)cc1`, the TGI with ACHN renal was greater than 100 µM; in the test on CCRF-CEM leukemia, 31.5 µM; in the test on NCI-H522 lung, 21.3 µM; in the test on SF-268 CNS it was 22.7 µM.

Take `N#Cc1cnsc1`: the TGI with ACHN renal, in the test with CCRF-CEM leukemia, in the test on LOX IMVI melanoma, with A498 renal, in the test with HT29 colon and with SF-268 CNS was greater than 100 µM each time. Also, the TGI with NCI-H460 lung, in the test on HOP-62 NSCLC and with NCI-H23 lung was greater than 100 µM each time.

In the case of `COc1cc(C(=O)O[C@H](C(N)=O)[C@]2(C)CO2)c2ccccc2c1`, the GI50 is 15.9 µM in the test on ACHN renal; 10.9 µM in the test on CCRF-CEM leukemia; 24.7 µM in the test on LOX IMVI melanoma; 13.7 µM in the test with HT29 colon; 33.2 µM with NCI-H522 lung; 14.2 µM with SF-268 CNS. The GI50 with NCI-H460 lung is 10.4 µM; with HOP-62 NSCLC, 5.72 µM; in the test with NCI-H23 lung it was 7.95 µM. The TGI was 30.9 µM in the test with ACHN renal; 58 µM with CCRF-CEM leukemia; 59.8 µM with LOX IMVI melanoma; 27.9 µM with HT29 colon; greater than 100 µM with NCI-H522 lung; 36.7 µM in the test on SF-268 CNS. The TGI with NCI-H460 lung was 57.1 µM; in the test with HOP-62 NSCLC, 17.9 µM; in the test with NCI-H23 lung, 21.8 µM.

Turning to `COC(=O)C1=C(c2ccc3c(c2)OCO3)O[C@H](c2ccc3c(c2)OCO3)[C@H]1COC(C)=O`, the TGI with ACHN renal is greater than 100 µM; with CCRF-CEM leukemia, greater than 100 µM; with LOX IMVI melanoma, greater than 100 µM; in the test on A498 renal it was 59.6 µM; in the test on HT29 colon, greater than 100 µM; with SF-268 CNS, greater than 100 µM. Moreover, the TGI in the test on NCI-H460 lung, with HOP-62 NSCLC and in the test with NCI-H23 lung was greater than 100 µM throughout.

Turning to `CN(C)C(=S)/N=c1\ss/c(=N\C(=S)N(C)C)n1-c1ccc2c(c1)OCO2`, the TGI in the test on ACHN renal, in the test on LOX IMVI melanoma, in the test on A498 renal, with NCI-H522 lung, in the test with SF-268 CNS and with HOP-62 NSCLC was greater than 100 µM throughout. In the test on NCI-H23 lung, the TGI was greater than 100 µM.

Regarding `O=[N+]([O-])c1ccc2nnnn2c1`, the TGI is greater than 100 µM in the test on ACHN renal; 35.8 µM with LOX IMVI melanoma; greater than 100 µM in the test with HT29 colon; 13.2 µM in the test on NCI-H522 lung; greater than 100 µM with SF-268 CNS; greater than 100 µM in the test with NCI-H460 lung. In addition, the TGI in the test on HOP-62 NSCLC and in the test on NCI-H23 lung was greater than 100 µM in each case.

As for `O=C(CC(=O)N1N=C(c2ccccc2)C(N=Nc2ccc(Cl)cc2)C1=O)Nc1ccccc1Cl` (stereo unspecified), the TGI in the test on ACHN renal is 48.8 µM; in the test with LOX IMVI melanoma, greater than 100 µM; in the test on HT29 colon, greater than 100 µM; in the test on NCI-H522 lung it was greater than 100 µM; in the test with SF-268 CNS, 78 µM; with NCI-H460 lung it was greater than 100 µM. For the same compound, the TGI turned out to be 40.6 µM in the test on HOP-62 NSCLC and 97 µM in the test on NCI-H23 lung.
